Test results reported in PMC4756062 (Clinical Pharmacokinetics, 2015).
“Also recorded” adds a separate entry of the source. Like-named read-outs stand apart in the source and are kept apart here.

Legend:
[1] = format: in vivo, human (breast cancer patients); conditions: for AUC(0-t): AUC0–24, plasma; for C trough: concentration before dosing; for C trough / C trough, ratio of weak to potent CYP2D6-inhibiting SSRI: 10 patients
[2] = Adverse effects recorded during the antidepressant switch study; format: in vivo, human (breast cancer patients)
[3] = after versus before the switch, median (range)
[4] = female, human, plasma, tamoxifen + potent CYP2D6-inhibiting SSRI (paroxetine or fluoxetine), median (range), dose corrected to 20 mg tamoxifen
[5] = female, human, plasma, C max, plasma, tamoxifen + potent CYP2D6-inhibiting SSRI (paroxetine or fluoxetine), median (range), dose corrected to 20 mg tamoxifen
[6] = plasma, tamoxifen + potent CYP2D6-inhibiting SSRI (paroxetine or fluoxetine), median (range)
[7] = plasma, after versus before the switch, median (range)
[8] = tamoxifen + potent CYP2D6-inhibiting SSRI (paroxetine or fluoxetine), median (range)
[9] = plasma, switch from paroxetine/fluoxetine to escitalopram
[10] = plasma, tamoxifen + potent CYP2D6-inhibiting SSRI (paroxetine or fluoxetine), median (range), dose corrected to 20 mg tamoxifen

Row | SMILES | AUC(0-t) [1, 4] [µM·h] | Cmax [1, 5] [nM] | C trough [1, 6] | C max, ratio of weak to potent CYP2D6-inhibiting SSRI [1, 7] | C trough, ratio of weak to potent CYP2D6-inhibiting SSRI [1, 7] | AUC0–24, ratio of weak to potent CYP2D6-inhibiting SSRI [1, 7] | further results
1 | CC/C(=C(\c1ccc(O)cc1)c1ccc(OCCNC)cc1)c1ccccc1 [Endoxifen, 4-hydroxy-N-desmethyl-tamoxifen] | 0.0992 | 5.46 | 5.20 (3.48–10.6) nM | 2.96 (1.50–7.44) | 2.80 (1.02–6.33) | – | AUC0–24 ratio endoxifen to ND-Tam, ratio of weak to potent CYP2D6-inhibiting SSRI [1, 3]: 3.33 (1.56–5.37); Fold higher endoxifen exposure after the switch, single patient ([1]; one person using 40 mg tamoxifen (dose corrected to 20 mg)): 2.9 fold; C max, ratio of weak to potent CYP2D6-inhibiting SSRI ([1]; plasma, after versus before the switch, median (range), listed as endoxifen): ~ 3; AUC0–24 ratio endoxifen to ND-Tam [1, 8]: 0.0113 (0.0065–0.014); AUC0–24 ratio endoxifen to tamoxifen [1, 8]: 0.0213 (0.0057–0.029)
2 | CC/C(=C(\c1ccc(O)cc1)c1ccc(OCCN(C)C)cc1)c1ccccc1 [4-OH-Tam, 4-hydroxytamoxifen] | 0.0638 | 3.46 | 2.47 (1.29–4.65) nM | 1.42 (0.81–2.05) | 1.40 (0.82–2.06) | 1.34 (0.88–1.87) | AUC0–24 ratio 4-OH-Tam to tamoxifen, ratio of weak to potent CYP2D6-inhibiting SSRI [1, 3]: 1.51 (1.08–1.67); AUC0–24 ratio 4-OH-Tam to tamoxifen, ratio of weak to potent CYP2D6-inhibiting SSRI ([1]; after versus before the switch, median (range), listed as 4-hydroxytamoxifen): ~ 1.5; Increase in AUC0–24 after the switch [1, 9]: 34%; Increase in Cmax after the switch [1, 9]: 42%; Increase in Ctrough after the switch [1, 9]: 40%; AUC0–24 ratio 4-OH-Tam to tamoxifen [1, 8]: 0.0109 (0.0053–0.014)
3 | CN(C)CCC[C@@]1(c2ccc(F)cc2)OCc2cc(C#N)ccc21 [escitalopram, S-citalopram] | – | – | – | – | – | – | Hot flashes ([2]; tamoxifen-treated women, during co-administration): hot flashes were reported particularly during escitalopram co-administration; Safety of switching from paroxetine/fluoxetine to escitalopram (antidepressant-related adverse events, psychiatric relapse) ([2]; tamoxifen-treated women, escitalopram 10–20 mg/day, cross-tapering): safe and feasible; also recorded: No antidepressant-related adverse events or psychiatric relapse were noted; Discontinuation of treatment ([2]; ten tamoxifen-treated women): None of the ten women had to discontinue
4 | CC/C(=C(\c1ccccc1)c1ccc(OCCN(C)C)cc1)c1ccccc1 [Tamoxifen, reference compound] | 6.42 | 369 | 278 (128–557) nM | – | – | – | –
5 | CC/C(=C(\c1ccccc1)c1ccc(OCCNC)cc1)c1ccccc1 [ND-Tam, N-desmethyltamoxifen] | – | – | 446 (306–807) nM | 1.09 (0.77–1.75) | 0.97 (0.76–1.37) | 1.09 (0.75–1.27) | AUC0–24 [1, 10]: 10,149 (7744–20,107) nM·h; Cmax [1, 10]: 528 nM
